According to EP0507854B1 (priority 1989, dated 1991):

Legend:
[1] = molecular target: Influenza A (H1N1) neuraminidase (Influenza A virus, UniProt P03468); test: biochemical
[2] = molecular target: Influenza A (H3N2) neuraminidase (Influenza A virus, UniProt P03482); test: biochemical
[3] = molecular target: Influenza B neuraminidase (Influenza B virus, UniProt P03474); test: biochemical
fowl plague viral NA = conditions: result in words; cited from earlier work
C. perfrinqens NA = conditions: after 22 hrs; cited from earlier work
A. ureafaciens NA = conditions: after 22 hrs; cited from earlier work
V cholera NA = V cholera NA (Vibrio cholerae serotype O1, UniProt P0C6E9); conditions: after 22 hrs; cited from earlier work
Sequence of V cholera NA (P0C6E9 25-781 limits assumed): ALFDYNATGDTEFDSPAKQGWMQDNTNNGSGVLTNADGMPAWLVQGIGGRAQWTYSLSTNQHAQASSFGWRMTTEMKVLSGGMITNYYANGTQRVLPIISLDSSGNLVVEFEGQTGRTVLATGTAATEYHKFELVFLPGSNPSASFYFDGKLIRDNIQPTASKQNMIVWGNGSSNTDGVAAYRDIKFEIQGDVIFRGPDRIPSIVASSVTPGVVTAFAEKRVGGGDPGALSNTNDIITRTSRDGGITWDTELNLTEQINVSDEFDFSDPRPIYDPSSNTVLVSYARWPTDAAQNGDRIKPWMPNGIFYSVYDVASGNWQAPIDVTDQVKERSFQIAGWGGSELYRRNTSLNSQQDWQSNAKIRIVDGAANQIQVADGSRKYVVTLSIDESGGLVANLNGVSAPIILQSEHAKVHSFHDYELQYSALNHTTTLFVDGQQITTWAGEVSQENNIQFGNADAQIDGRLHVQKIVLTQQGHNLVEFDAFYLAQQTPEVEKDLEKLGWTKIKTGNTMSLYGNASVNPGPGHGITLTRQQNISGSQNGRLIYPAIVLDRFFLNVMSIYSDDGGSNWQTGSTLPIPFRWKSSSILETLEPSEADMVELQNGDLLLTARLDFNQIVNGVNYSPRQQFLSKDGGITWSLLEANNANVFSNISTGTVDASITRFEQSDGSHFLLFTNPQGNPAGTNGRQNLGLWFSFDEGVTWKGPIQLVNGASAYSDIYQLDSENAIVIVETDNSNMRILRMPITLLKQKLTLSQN

Sequence of Influenza A (H1N1) neuraminidase (P03468 whole entry, looked up): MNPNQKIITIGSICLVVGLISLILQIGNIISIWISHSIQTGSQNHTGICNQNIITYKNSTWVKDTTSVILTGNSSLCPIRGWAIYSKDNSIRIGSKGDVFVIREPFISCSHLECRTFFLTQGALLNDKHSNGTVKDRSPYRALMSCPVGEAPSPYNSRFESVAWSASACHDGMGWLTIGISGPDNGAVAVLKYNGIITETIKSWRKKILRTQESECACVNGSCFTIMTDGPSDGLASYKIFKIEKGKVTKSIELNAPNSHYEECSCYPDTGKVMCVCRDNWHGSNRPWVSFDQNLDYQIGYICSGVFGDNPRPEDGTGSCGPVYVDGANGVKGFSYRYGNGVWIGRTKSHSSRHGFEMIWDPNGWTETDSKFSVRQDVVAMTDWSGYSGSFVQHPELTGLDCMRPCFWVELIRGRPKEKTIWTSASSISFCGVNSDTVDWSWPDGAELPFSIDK
Sequence of Influenza A (H3N2) neuraminidase (P03482 whole entry, looked up): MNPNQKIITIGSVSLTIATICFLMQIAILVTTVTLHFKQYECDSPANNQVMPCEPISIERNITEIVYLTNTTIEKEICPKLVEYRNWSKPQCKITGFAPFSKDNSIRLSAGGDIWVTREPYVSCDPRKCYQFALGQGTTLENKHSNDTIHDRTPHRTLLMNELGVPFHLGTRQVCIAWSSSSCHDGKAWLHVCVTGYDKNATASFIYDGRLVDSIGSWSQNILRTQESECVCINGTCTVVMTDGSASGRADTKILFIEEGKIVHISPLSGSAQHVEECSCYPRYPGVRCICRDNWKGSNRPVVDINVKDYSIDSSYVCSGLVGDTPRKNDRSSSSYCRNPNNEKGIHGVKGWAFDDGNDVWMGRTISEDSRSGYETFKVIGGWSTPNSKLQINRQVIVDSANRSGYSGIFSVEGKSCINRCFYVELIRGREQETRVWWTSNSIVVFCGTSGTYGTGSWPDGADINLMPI
Sequence of Influenza B neuraminidase (P03474 whole entry, looked up): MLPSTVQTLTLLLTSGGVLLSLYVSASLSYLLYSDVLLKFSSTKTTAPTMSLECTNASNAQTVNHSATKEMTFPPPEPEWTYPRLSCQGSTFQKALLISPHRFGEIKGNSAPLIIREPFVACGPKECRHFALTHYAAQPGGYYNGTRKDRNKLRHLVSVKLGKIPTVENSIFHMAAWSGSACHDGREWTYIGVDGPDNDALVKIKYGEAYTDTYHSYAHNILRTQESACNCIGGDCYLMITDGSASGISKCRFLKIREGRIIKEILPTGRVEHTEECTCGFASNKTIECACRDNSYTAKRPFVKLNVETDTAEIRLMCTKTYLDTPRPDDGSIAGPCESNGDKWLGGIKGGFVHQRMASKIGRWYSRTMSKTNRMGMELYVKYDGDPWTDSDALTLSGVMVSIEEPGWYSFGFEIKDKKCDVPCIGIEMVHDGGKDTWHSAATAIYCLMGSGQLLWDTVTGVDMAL

## CC(=O)N[C@@H]1CCC(O)(C(=O)O)O[C@H]1[C@H](O)[C@H](O)CO (stereo partly drawn) [4-deoxy Neu5Ac, 4-deoxy-N-acetylneuraminic acid]
[1]
  Ki: 998 µM
[2]
  Ki: 2200 µM
[3]
  Ki: 1050 µM

## CO[C@H]1CC(O)(C(=O)O)O[C@@H]([C@H](O)[C@H](O)CO)[C@@H]1NC(C)=O (stereo partly drawn) [4-methoxy Neu5Ac, 4-methoxy-N-acetylneuraminic acid]
Fowl plague viral NA
  substrate quality: excellent substrate

## CC(=O)N[C@H]1[C@H]([C@H](O)[C@H](O)CO)OC(O)(C(=O)O)C[C@@H]1O (stereo partly drawn) [Neu5Ac, N-acetylneuraminic acid]
[1]
  Ki: 626 µM

## CC(=O)NC1C(O)CC(OCc2ccccc2)(C(=O)O)OC1C(O)C(O)CO [benzyl-alpha-glycosides of N-acetyl-4-epi-D-neuraminic acid]
C. perfrinqens NA
  substrate cleaved: 100%
A. ureafaciens NA
  substrate cleaved: 50%
V cholera NA
  substrate cleaved: 11%

## COC1(C(=O)O)CCC(NC(C)=O)C(C(O)C(O)CO)O1 (stereo not drawn) [methyl-alpha-glycoside of 4-deoxy Neu5Ac]
Fowl plague viral NA
  substrate quality: good substrate
